Experimental data reported in patent US6689806B1, “Indolinone compounds as kinase inhibitors” (Sugen, Inc., priority 1999, dated 2004).
Read-outs that look alike come from different tables or passages of the source.

Assays:
Assay type in all cases: cell-based
PDGFR = PDGFR (Homo sapiens, UniProt P09619); assay: PDGF-induced BrdU incorporation assay; design: expressed in transfected cells; host or cells: 3T3; conditions: 3T3 cells expressing human PDGF-R, PDGF 3.8 nM
Procedure: (§1) The cellular/biologic assays described herein measure the amount of DNA made in response to activation of a test kinase, which is a general measure of a proliferative response. The general procedure for this assay is as follows: a compound is introduced to cells expressing the test kinase, either naturally or recombinantly, for some period of time after which, if the test kinase is a receptor, a ligand known to activate the receptor is added. After incubation at least overnight, a DNA labeling reagent such as Bromodeoxy-uridine (BrdU) or 3H-thymidine is added. The amount of labeled DNA is detected with either an anti-BrdU antibody or by measuring radioactivity and is compared to control cells not contacted with a test compound.
PDGF-Induced BrdU Incorporation Assay
(8) 3T3 cell line genetically engineered to express human PDGF-R.
(1) Cells are seeded at 8000 cells/well in DMEM, 10% CS, 2 mM Gln in a 96 well plate. Cells are incubated overnight at 37° C. in 5% CO2.
(§2) (2) After 24 hours, the cells are washed with PBS, and then are serum starved in serum free medium (0% CS DMEM with 0.1% BSA) for 24 hours.
(§3) (3) On day 3, ligand (PDGF, 3.8 nM, prepared in DMEM with 0.1% BSA) and test compounds are added to the cells simultaneously. The negative control wells receive serum free DMEM with 0.1% BSA only; the positive control cells receive the ligand (PDGF) but no test compound. Test compounds are prepared in serum free DMEM with ligand in a 96 well plate, and serially diluted for 7 test concentrations.
(§4) (4) After 20 hours of ligand activation, diluted BrdU labeling reagent (1: 100 in DMEM, 0.1% BSA) is added and the cells are incubated with BrdU (final concentration=10 μM) for 1.5 hours.
(§5) (10) The absorbance of the samples are measured at 410 nm (in “dual wavelength” mode with a filter reading at 490 nm, as a reference wavelength) on a Dynatech ELISA plate reader.

EGFR = EGFR (Homo sapiens, UniProt P00533); assay: EGF-induced BrdU incorporation assay; design: expressed in transfected cells; host or cells: 3T3; conditions: 3T3 cells expressing human EGF-R, EGF 2 nM, read-out: BrdU DNA syn. EGFr IC50
Procedure: as §1
EGF-Induced BrdU Incorporation Assay
(8) 3T3 cell line genetically engineered to express human EGF-R.
(1) Cells are seeded at 8000 cells/well in 10% CS, 2 mM Gin in DMEM, in a 96 well plate. Cells are incubated overnight at 37° C. in 5% CO2.
as §2
as §3, with “(EGF, 2” for “(PDGF, 3.8”, “0.1%/BSA)” for “0.1% BSA)”, “(EGF)” for “(PDGF)”
as §4, §5

Her2 = target: T1, Her2 (Homo sapiens, UniProt P04626); assay: EGF-induced Her2-driven BrdU incorporation; conditions: 3T3 cells with EGF-R/Her2 chimeric receptor, EGF 2 nM, read-out: BrdU DNA syn. HER2 IC50
T1 construct: fused on or other part: P00533 (Epidermal growth factor receptor)
Procedure: as §1
EGF-Induced Her2-Driven BrdU Incorporation
(8) 3T3 cell line engineered to express a chimeric receptor having the extra-cellular domain of EGF-R and the intra-cellular domain of Her2.
(1) Cells are seeded at 8000 cells/well in DMEM, 10% CS, 2 mM Gln in a 96-well plate. Cells are incubated overnight at 37° C. in 5% CO2.
as §2
as §3, with “(EGF=2” for “(PDGF, 3.8”, “(EGF)” for “(PDGF)”
(4) After 20 hours of ligand activation, diluted BrdU labeling reagent (1:100 in DMEM, 0.1% BSA) is added and the cells are incubated with BrdU (final concentration=[…]) for 1.5 hours.
as §5

[1] = Table 7, read-out: BrdU DNA syn. PDGFr IC50
[2] = Table 5, read-out: BrdU DNA syn. PDFGr IC50

T1 sequence (P04626 676-1255 limits assumed): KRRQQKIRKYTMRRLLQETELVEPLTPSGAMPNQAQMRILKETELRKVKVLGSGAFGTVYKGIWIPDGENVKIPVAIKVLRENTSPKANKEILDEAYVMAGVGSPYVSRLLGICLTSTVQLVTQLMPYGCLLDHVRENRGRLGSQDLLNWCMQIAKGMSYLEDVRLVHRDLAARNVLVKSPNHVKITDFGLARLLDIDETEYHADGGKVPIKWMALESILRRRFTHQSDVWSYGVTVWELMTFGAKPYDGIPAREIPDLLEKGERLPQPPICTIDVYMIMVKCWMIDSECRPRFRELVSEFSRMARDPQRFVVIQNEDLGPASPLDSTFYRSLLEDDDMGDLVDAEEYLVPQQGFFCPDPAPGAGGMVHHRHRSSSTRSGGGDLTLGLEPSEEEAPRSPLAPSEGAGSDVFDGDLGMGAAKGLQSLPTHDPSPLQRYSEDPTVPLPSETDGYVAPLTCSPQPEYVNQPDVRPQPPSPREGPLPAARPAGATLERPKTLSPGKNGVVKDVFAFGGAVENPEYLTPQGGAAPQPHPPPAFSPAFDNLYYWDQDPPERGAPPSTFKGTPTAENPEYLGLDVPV
EGFR, sequence (P00533 25-1210): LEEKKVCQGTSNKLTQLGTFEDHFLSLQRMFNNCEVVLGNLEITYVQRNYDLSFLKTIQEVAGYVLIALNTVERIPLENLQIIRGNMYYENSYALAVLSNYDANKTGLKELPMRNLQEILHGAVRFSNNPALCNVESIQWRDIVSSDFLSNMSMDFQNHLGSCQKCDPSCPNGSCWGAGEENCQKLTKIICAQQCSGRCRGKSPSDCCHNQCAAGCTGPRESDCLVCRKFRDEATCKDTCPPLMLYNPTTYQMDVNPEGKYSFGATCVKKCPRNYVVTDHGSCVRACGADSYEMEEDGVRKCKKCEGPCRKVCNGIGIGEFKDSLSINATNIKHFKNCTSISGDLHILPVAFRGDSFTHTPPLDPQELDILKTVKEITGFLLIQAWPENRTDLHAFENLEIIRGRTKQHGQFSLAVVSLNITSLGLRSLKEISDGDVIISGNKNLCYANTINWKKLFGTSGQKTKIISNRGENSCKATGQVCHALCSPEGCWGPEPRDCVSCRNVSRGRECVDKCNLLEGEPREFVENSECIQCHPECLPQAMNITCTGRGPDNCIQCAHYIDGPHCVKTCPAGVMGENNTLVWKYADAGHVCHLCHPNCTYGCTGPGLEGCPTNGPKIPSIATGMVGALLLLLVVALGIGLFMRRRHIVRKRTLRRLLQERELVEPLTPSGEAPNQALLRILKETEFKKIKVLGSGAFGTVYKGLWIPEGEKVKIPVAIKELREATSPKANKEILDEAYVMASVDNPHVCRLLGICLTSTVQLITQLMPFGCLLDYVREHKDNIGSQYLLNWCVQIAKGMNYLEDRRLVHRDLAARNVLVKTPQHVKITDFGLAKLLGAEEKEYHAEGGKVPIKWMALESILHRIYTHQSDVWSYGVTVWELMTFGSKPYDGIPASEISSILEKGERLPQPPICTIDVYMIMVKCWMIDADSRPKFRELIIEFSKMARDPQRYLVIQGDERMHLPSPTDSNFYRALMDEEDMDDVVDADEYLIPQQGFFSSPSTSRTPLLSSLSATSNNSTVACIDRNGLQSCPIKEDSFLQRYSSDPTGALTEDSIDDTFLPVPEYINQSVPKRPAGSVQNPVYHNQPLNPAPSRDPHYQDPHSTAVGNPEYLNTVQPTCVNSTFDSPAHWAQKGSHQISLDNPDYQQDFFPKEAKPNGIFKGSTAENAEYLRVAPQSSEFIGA
PDGFR, sequence (P09619 33-1106): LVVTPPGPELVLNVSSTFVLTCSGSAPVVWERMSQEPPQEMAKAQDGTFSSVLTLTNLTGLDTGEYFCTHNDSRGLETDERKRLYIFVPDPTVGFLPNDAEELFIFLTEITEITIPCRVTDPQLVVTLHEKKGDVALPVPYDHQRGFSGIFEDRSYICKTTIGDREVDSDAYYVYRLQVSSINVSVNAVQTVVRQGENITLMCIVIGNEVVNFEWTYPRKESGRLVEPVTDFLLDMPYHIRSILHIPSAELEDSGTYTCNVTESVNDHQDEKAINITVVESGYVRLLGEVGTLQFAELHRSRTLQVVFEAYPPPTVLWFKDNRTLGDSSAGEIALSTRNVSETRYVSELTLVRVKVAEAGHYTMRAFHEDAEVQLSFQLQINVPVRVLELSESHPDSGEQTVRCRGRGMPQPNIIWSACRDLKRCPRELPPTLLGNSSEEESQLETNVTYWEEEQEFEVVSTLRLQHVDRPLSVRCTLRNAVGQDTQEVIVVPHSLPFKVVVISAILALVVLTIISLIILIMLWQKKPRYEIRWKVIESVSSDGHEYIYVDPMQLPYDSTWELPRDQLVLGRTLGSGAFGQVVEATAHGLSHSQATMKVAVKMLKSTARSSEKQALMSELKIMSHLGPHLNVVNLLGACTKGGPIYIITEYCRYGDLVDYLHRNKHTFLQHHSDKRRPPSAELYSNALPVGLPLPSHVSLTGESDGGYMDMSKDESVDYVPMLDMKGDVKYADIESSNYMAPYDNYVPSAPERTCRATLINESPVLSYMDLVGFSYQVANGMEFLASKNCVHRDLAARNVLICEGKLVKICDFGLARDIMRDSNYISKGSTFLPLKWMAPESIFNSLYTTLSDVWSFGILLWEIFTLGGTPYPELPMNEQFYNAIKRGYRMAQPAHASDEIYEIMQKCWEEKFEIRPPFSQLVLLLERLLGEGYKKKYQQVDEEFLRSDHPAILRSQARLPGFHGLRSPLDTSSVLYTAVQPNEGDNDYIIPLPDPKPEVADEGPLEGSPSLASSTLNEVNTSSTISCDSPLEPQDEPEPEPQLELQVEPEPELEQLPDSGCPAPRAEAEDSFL

Row | SMILES | IC50 (PDGFR; [1]) | IC50 (EGFR; Table 7) | IC50 (Her2; Table 7) | IC50 (PDGFR; [2]) | IC50 (EGFR; Table 5) | IC50 (Her2; Table 5)
1 | O=C1Nc2cccc(CCO)c2/C1=C/c1ccccn1 [IN-005, 4-(2-Hydroxy-ethyl)-3-pyridin-2-ylmethylene-1,3-dihydro-indol-2-one] | 1.7 µM | 3 µM | 1.6 µM | – | – | –
2 | CC(C)c1ccccc1OCCc1cccc2c1CC(=O)N2 [IN-002, 4-[2-(2-Isopropyl-phenoxy)-ethyl]-1,3-dihydro-indol-2-one] | 37.1 µM | 41.5 µM | 30 µM | – | – | –
3 | CC(C)c1cccc(OCCc2cccc3c2CC(=O)N3)c1 [IN-001, 4-[2-(3-Isopropyl-phenoxy)-ethyl]-1,3-dihydro-indol-2-one] | 35.2 µM | 32.5 µM | 28.9 µM | – | – | –
4 | Cc1[nH]c(/C=C2\C(=O)Nc3cccc(CCOc4ccc(C(C)C)cc4)c32)c(C)c1CCC(=O)O [IN-024, 3-(5-{4-[2-(4-Isopropyl-phenoxy)-ethyl]-2-oxo-1,2-dihydro-indol-3-ylidenemethyl}-2,4-dimethyl-1H-pyrro-3-yl)-propionic acid] | 49.6 µM | > 50 µM | > 50 µM | – | – | –
5 | Cc1[nH]c(/C=C2\C(=O)Nc3cccc(CCOc4cccc(C(C)C)c4)c32)c(C)c1CCCN(C)C [IN-023] | 23.6 µM | 28.7 µM | 33.8 µM | – | – | –
6 | O=C1Nc2cccc(CCO)c2/C1=C\c1ccc(Br)cc1 [IN-004, 3-(4-Bromo-benzylidene)-4-(2-hydroxy-ethyl)-1,3-dihydro-indol-2-one] | 3.3 µM | 4.7 µM | 3.6 µM | – | – | –
7 | COc1ccc(/C=C2\C(=O)Nc3cccc(CCO)c32)cc1-c1cccs1 [IN-008, 4-(2-Hydroxy-ethyl)-3-(4-methoxy-3-thiophen-2-yl-benzylidene)-1,3-dihydro-indol-2-one] | 5.5 µM | 31.3 µM | 2.3 µM | – | – | –
8 | Cc1cccc(/C=C2\C(=O)Nc3cccc(CCO)c32)n1 [IN-006] | 4.6 µM | 11.1 µM | 6.6 µM | – | – | –
9 | O=C1Cc2c(CCOc3cccc(-c4ccccc4)c3)cccc2N1 [IN-003, 4-[2-(Biphenyl-3-yloxy)-ethyl]-1,3-dihydro-indol-2-one] | 22 µM | 29 µM | 12.1 µM | – | – | –

Next, values leading:

Row | IC50 (PDGFR; [1]) | IC50 (EGFR; Table 7) | IC50 (Her2; Table 7) | IC50 (PDGFR; [2]) | IC50 (EGFR; Table 5) | IC50 (Her2; Table 5) | SMILES
10 | – | – | – | > 50 µM | > 50 µM | > 50 µM | COc1cccc(-c2ccc3c(c2)NC(=O)C3Cc2ccccc2O)c1 (stereo not drawn) [AAI-13, 3-(2-Hydroxybenzyl)-6-(3-methoxyphenyl)-1,3-dihydroindol-2-one]
11 | – | – | – | 32.7 µM | 30 µM | 32.7 µM | COc1ccc(CC2C(=O)Nc3ccc(F)cc32)cc1C1CCCC1 (stereo not drawn) [AAI-5, 3-(3-Cyclopentyl-4-methoxybenzyl)-5-fluoro-1,3-dihydroindol-2-one]
12 | – | – | – | > 50 µM | > 50 µM | > 50 µM | O=C1Nc2ccccc2C1Cc1ccc2[nH]ccc2c1 (stereo not drawn) [AAI-17, 3-(1H-Indol-5-ylmethyl)-1,3-dihydroindol-2-one]
13 | – | – | – | > 50 µM | > 50 µM | > 50 µM | Cc1cccc(CC2C(=O)Nc3cccc(CCO)c32)n1 (stereo not drawn) [AAI-27, 4-(2-Hydroxyethyl)-3-(6-methylpyridin-2-ylmethyl)-1,3-dihydroindol-2-one]
14 | – | – | – | > 50 µM | > 50 µM | 27.3 µM | COc1ccc(CC2C(=O)Nc3cc(NC(C)=O)ccc32)cc1-c1cccs1 (stereo not drawn) [AAI-6, N-[3-(4-Methoxy-3-thiophen-2-ylbenzyl)-2-oxo-2,3-dihydro-1H-indol-6-yl]-acetamide]
15 | – | – | – | > 50 µM | > 50 µM | 34.1 µM | COc1c(C(C)C)cc(CC2C(=O)Nc3ccccc32)cc1C(C)C (stereo not drawn) [AAI-10, 3-(3,5-Diisopropyl-4-methoxybenzyl)-1,3-dihydroindol-2-one]
16 | – | – | – | > 50 µM | > 50 µM | 30.9 µM | O=C1Nc2cc(-c3ccccc3)ccc2C1Cc1cccc(F)c1O (stereo not drawn) [AAI-24, 3-(3-Fluoro-2-hydroxybenzyl)-6-phenyl-1,3-dihydroindol-2-one]
17 | – | – | – | 0.35 µM | 32.2 µM | > 50 µM | Cc1[nH]c(CC2C(=O)Nc3ccc(Cl)cc32)c(C)c1CCCN(C)C (stereo not drawn) [AAI-23, 5-Chloro-3-[4-(3-dimethylaminopropyl)-3,5-dimethyl-1H-pyrrol-2-ylmethyl]-1,3-dihydroindol-2-one]
18 | – | – | – | 1.15 µM | 27.6 µM | > 50 µM | COc1ccc(-c2ccc3c(c2)NC(=O)C3Cc2[nH]c(C)c(CCCN(C)C)c2C)cc1 (stereo not drawn) [AAI-22, 3-[4-(3-Dimethylaminopropyl)-3,5-dimethyl-1H-pyrrol-2-ylmethyl]-6-(4-methoxyphenyl)-1,3-dihydroindol-2-one]
19 | – | – | – | 8.81 µM | 38.5 µM | 29.2 µM | COc1ccccc1-c1ccc2c(c1)NC(=O)C2Cc1[nH]c(C)c(CCCN(C)C)c1C (stereo not drawn) [AAI-20, 3-[4-(3-Dimethylamino-propyl)-3,5-dimethyl-1H-pyrrol-2-ylmethyl]-6-(2-methoxy-phenyl)-1,3-dihydro-indol-2-one]
20 | – | – | – | > 50 µM | > 50 µM | 11.5 µM | COc1ccc(CC2C(=O)Nc3ccc(CCN4CCOCC4)cc32)cc1-c1ccsc1 (stereo not drawn) [AAI-8, 3-(4-Methoxy-3-thiophen-3-ylbenzyl)-5-(2-morpholin-4-ylethyl)-1,3-dihydroindol-2-one]
21 | – | – | – | > 50 µM | > 50 µM | > 50 µM | O=C1Nc2ccc(F)cc2C1Cc1ccc(O)c(C2CCCC2)c1 (stereo not drawn) [AAI-11, 3-(3-Cyclopentyl-4-hydroxybenzyl)-5-fluoro-1,3-dihydroindol-2-one]
22 | – | – | – | 3.87 µM | > 50 µM | > 50 µM | Cc1[nH]c(CC2C(=O)Nc3ccccc32)c(C)c1CCCN(C)C (stereo not drawn) [AAI-18, 3-[4-(3-Dimethylaminopropyl)-3,5-dimethyl-1H-pyrrol-2-ylmethyl]-1,3-dihydroindol-2-one]
23 | – | – | – | > 50 µM | > 50 µM | > 50 µM | COc1ccc(CC2C(=O)Nc3cc(-c4ccccc4)ccc32)c(O)c1 (stereo not drawn) [AAI-25, 3-(2-Hydroxy-4-methoxybenzyl)-6-phenyl-1,3-dihydroindol-2-one]
24 | – | – | – | 1.2 µM | 27.8 µM | > 50 µM | COc1cccc(-c2ccc3c(c2)NC(=O)C3Cc2[nH]c(C)c(CCCN(C)C)c2C)c1 (stereo not drawn) [AAI-21, 3-[4-(3-Dimethylaminopropyl)-3,5-dimethyl-1H-pyrrol-2-ylmethyl]-6-(3-methoxyphenyl)-1,3-dihydroindol-2-one]
25 | – | – | – | > 50 µM | > 50 µM | > 50 µM | Cc1cccc2c1C(Cc1ccc3[nH]ccc3c1)C(=O)N2 (stereo not drawn) [AAI-16, 3-(1H-Indol-5-ylmethyl)-4-methyl-1,3-dihydroindol-2-one]
26 | – | – | – | 31.1 µM | 28.1 µM | 6.8 µM | CC(=O)Nc1ccc2c(c1)NC(=O)C2Cc1ccc(OCCN2CCOCC2)c(C2CCCCC2)c1 (stereo not drawn) [AAI-7, N-{3-[3-Cyclohexyl-4-(2-morpholin-4-ylethoxy)-benzyl]-2-oxo-2,3-dihydro-1H-indol-6-yl}-acetamide]
